Test results taken from ChEMBL document CHEMBL1255493, “In vitro activity of telavancin against a contemporary worldwide collection of Staphylococcus aureus isolates” (2010).
Values after ≈ are worked out from the molar mass of the structure shown. Active and inactive are the calls of the source. The rule behind the calls is not given here.

Assays:
Assay type in all cases: functional
[1] = test system: Staphylococcus aureus; test: Antibacterial activity against methicillin-susceptible Staphylococcus aureus clinical isolates assessed as susceptible isolates by EUCAST method
[2] = test system: Staphylococcus aureus; test: Antibacterial activity against methicillin-susceptible Staphylococcus aureus clinical isolates assessed as resistant isolates by EUCAST method
[3] = test system: Staphylococcus aureus; test: Antibacterial activity against methicillin-resistant Staphylococcus aureus clinical isolates assessed as susceptible isolates by EUCAST method
[4] = test system: Staphylococcus aureus; test: Antibacterial activity against methicillin-resistant Staphylococcus aureus clinical isolates by CLSi method
[5] = test system: Staphylococcus aureus; test: Antibacterial activity against methicillin-resistant Staphylococcus aureus clinical isolates assessed as resistant isolates by CLSI method
[6] = test system: Staphylococcus aureus; test: Antibacterial activity against methicillin-resistant Staphylococcus aureus clinical isolates assessed as resistant isolates by EUCAST method
[7] = test system: Staphylococcus aureus; test: Antibacterial activity against methicillin-susceptible Staphylococcus aureus clinical isolates assessed as susceptible isolates by CLSI method
[8] = test system: Staphylococcus aureus; test: Antibacterial activity against methicillin-susceptible Staphylococcus aureus clinical isolates by CLSi method
[9] = test system: Staphylococcus aureus; test: Antibacterial activity against methicillin-resistant Staphylococcus aureus clinical isolates assessed as susceptible isolates by CLSI method
[10] = test system: Staphylococcus aureus; test: Antibacterial activity against methicillin-susceptible Staphylococcus aureus clinical isolates assessed as resistant isolates by CLSI method
[11] = test system: Staphylococcus aureus; test: Antibacterial activity against methicillin-resistant Staphylococcus aureus clinical isolates assessed as susceptibility breakpoint

| Compound | Activity [1] | Activity [2] | Activity [3] | MIC50 [4] | MIC90 [4] | Activity [5] | Activity [6] | Activity [7] | MIC50 [8] | MIC90 [8] | Activity [9] | Activity [10] | Activity [11] |
| --- | --- | --- | --- | --- | --- | --- | --- | --- | --- | --- | --- | --- | --- |
| CCCCCCCCCC(=O)N[C@@H](Cc1c[nH]c2ccccc12)C(=O)N[C@H](CC(N)=O)C(=O)N[C@@H](CC(=O)O)C(=O)N[C@@H]1C(=O)NCC(=O)N[C@@H](CCCN)C(=O)N[C@@H](CC(=O)O)C(=O)N[C@H](C)C(=O)N[C@@H](CC(=O)O)C(=O)NCC(=O)N[C@H](CO)C(=O)N[C@@H]([C@H](C)CC(=O)O)C(=O)N[C@@H](CC(=O)c2ccccc2N)C(=O)O[C@@H]1C | 100% | 0% | 99.9% | 0.25 µg/mL (≈ 0.154 µM) | 0.5 µg/mL (≈ 0.309 µM) | inactive | 0.1% | 100% | 0.25 µg/mL (≈ 0.154 µM) | 0.5 µg/mL (≈ 0.309 µM) | 99.9% | inactive | – |
| CCC[C@@H]1C[C@@H](C(=O)N[C@@H]([C@H]2O[C@H](SC)[C@H](O)[C@@H](O)[C@H]2O)[C@H](C)Cl)N(C)C1 [CLINDAMYCIN] | 94.6% | 5% | 54.3% | – | > 2 µg/mL | 45% | 45.3% | 95% | ≤ 0.25 µg/mL | ≤ 0.25 µg/mL | 54.7% | 4.9% | – |
| CC[C@H]1OC(=O)[C@H](C)[C@@H](O[C@H]2C[C@@](C)(OC)[C@@H](O)[C@H](C)O2)[C@H](C)[C@@H](O[C@@H]2O[C@H](C)C[C@H](N(C)C)[C@H]2O)[C@](C)(O)C[C@@H](C)C(=O)[C@H](C)[C@@H](O)[C@]1(C)O [ERYTHROMYCIN] | 74.5% | 25.2% | 14.2% | > 4 µg/mL | – | 85.6% | 85.6% | 74.3% | ≤ 0.25 µg/mL | > 4 µg/mL | 13.9% | 25.2% | – |
| C[C@H]1COc2c(N3CCN(C)CC3)c(F)cc3c(=O)c(C(=O)O)cn1c23.C[C@H]1COc2c(N3CCN(C)CC3)c(F)cc3c(=O)c(C(=O)O)cn1c23.O [LEVOFLOXACIN] | 92.9% | 6.8% | 21.6% | > 4 µg/mL | > 4 µg/mL | 77.9% | 77.9% | 92.9% | ≤ 0.5 µg/mL | ≤ 0.5 µg/mL | 21.6% | 6.8% | – |
| CC(=O)NC[C@H]1CN(c2ccc(N3CCOCC3)c(F)c2)C(=O)O1 [LINEZOLID] | 100% | 0% | – | 1 µg/mL (≈ 2.96 µM) | 2 µg/mL (≈ 5.93 µM) | inactive | <0.1% | 100% | 2 µg/mL (≈ 5.93 µM) | 2 µg/mL (≈ 5.93 µM) | – | inactive | – |
| CCCCCCCCCCNCCN[C@@]1(C)C[C@H](O[C@H]2[C@H](Oc3c4cc5cc3Oc3ccc(cc3Cl)[C@@H](O)[C@@H](NC(=O)[C@@H](CC(C)C)NC)C(=O)N[C@@H](CC(N)=O)C(=O)N[C@H]5C(=O)N[C@H]3C(=O)N[C@H](C(=O)N[C@H](C(=O)O)c5cc(O)c(CNCP(=O)(O)O)c(O)c5-c5cc3ccc5O)[C@H](O)c3ccc(c(Cl)c3)O4)O[C@H](CO)[C@@H](O)[C@@H]2O)O[C@@H](C)[C@H]1O [TELAVANCIN] | 100% | inactive | – | 0.12 µg/mL (≈ 0.0684 µM) | 0.25 µg/mL (≈ 0.142 µM) | inactive | inactive | 100% | 0.12 µg/mL (≈ 0.0684 µM) | 0.25 µg/mL (≈ 0.142 µM) | – | inactive | <=1 ug ml-1 |
| CN(C)[C@@H]1C(O)=C(C(N)=O)C(=O)[C@@]2(O)C(O)=C3C(=O)c4c(O)cccc4[C@@](C)(O)[C@H]3C[C@@H]12 [TETRACYCLINE] | 94.2% | 5.8% | 80.1% | – | – | 19.1% | 19.9% | 94.6% | ≤ 1 µg/mL | ≤ 1 µg/mL | 80.7% | 5% | – |
| CN[C@H](CC(C)C)C(=O)N[C@H]1C(=O)N[C@@H](CC(N)=O)C(=O)N[C@H]2C(=O)N[C@H]3C(=O)N[C@H](C(=O)N[C@H](C(=O)O)c4cc(O)cc(O)c4-c4cc3ccc4O)[C@H](O)c3ccc(c(Cl)c3)Oc3cc2cc(c3O[C@@H]2O[C@H](CO)[C@@H](O)[C@H](O)[C@H]2O[C@H]2C[C@](C)(N)[C@H](O)[C@H](C)O2)Oc2ccc(cc2Cl)[C@H]1O [VANCOMYCIN] | 100% | 0% | 99.9% | 1 µg/mL (≈ 0.69 µM) | 1 µg/mL (≈ 0.69 µM) | 0% | 0.1% | 100% | 1 µg/mL (≈ 0.69 µM) | 1 µg/mL (≈ 0.69 µM) | 99.9% | 0% | – |
| GENTAMICIN | 96.4% | 3.6% | 77.1% | < 1 µg/mL | > 8 µg/mL | 21.1% | 22.9% | 96.6% | < 1 µg/mL | < 1 µg/mL | 77.9% | 3.1% | – |
